The text below walks through data of paper PMC8396812, “Aphid Odorant-Binding Protein 9 Is Narrowly Tuned to Linear Alcohols and Aldehydes of Sixteen Carbon Atoms” (Insects, 2021).

One test addresses T1, ApisOBP9 (Acyrthosiphon pisum, UniProt A0A8R1TD77).
T1 construct: pET30, E. coli, N-terminal His-tag removed with enterokinase
T1 sequence (A0A8R1TD77 25-165): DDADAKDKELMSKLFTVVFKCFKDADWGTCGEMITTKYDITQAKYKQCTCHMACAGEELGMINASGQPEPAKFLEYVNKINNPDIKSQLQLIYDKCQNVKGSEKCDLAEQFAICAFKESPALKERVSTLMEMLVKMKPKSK
Nature of the test: competitive displacement of 1-NPN fluorescence. Type of test: binding. Conditions: 2 μM protein, 2 μM 1-NPN, 50 mM Tris-HCl pH 7.4, room temperature.
For `COc1cc(/C=C/C=O)ccc1O` [coniferyl aldehyde], the KD result was “with only coniferyl aldehyde and safranal showing moderate affinities”.
Same read-out and setting: the value for `CC1=C(C=O)C(C)(C)CC=C1` [safranal] was “with only coniferyl aldehyde and safranal showing moderate affinities”; that for `C=CC(=C)CC/C=C(\C)CCC=C(C)C` [(E)-β-farnesene] was “in our hands, ApisOBP9 showed some affinity to EBF”.

The target in the next test is T1, ApisOBP9. Nature of the test: biochemical. More on the design: competitive displacement of 1-NPN fluorescence from recombinant OBP9, Kd calculated from IC50. To be noted: read-out: ApisOBP9-WT. The procedure:
Affinity constants were evaluated by the competitive fluorescent method, using a PerkinElmer FL 6500 spectrofluorometer in a right-angle configuration at room temperature and quartz cuvettes with a 1 cm path. The fluorescent probe N-phenyl-1-naphthylamine (1-NPN) was excited at 337 nm, and emission spectra were recorded between 380 and 450 nm. Binding of 1-NPN was evaluated by adding aliquots of a 1 mM methanol solution to reach final concentrations of 2–16 μM, to a 2 μM solution of the protein in 50 mM Tris-HCl buffer, pH 7.4. Intensity values were recorded at the peak maximum, around 412 nm. The dissociation constant of the complex protein/1-NPN was calculated using Prism software (https://www.graphpad.com/scientific-software/prism/, accessed on 10 February 2021). The affinities of other ligands were evaluated in competitive binding assays by adding aliquots of 1 mM methanol solutions of each ligand to final concentration values of 2 to 16 μM, to a mixture of the protein and 1-NPN, both at the concentration of 2 μM in 50 mM Tris-HCl buffer, pH 7.4. Dissociation constants of ligands were calculated from the corresponding [IC]50 values (the concentration of each ligand halving the initial value of fluorescence), using the equation:KD = [IC]50/1 + [1-NPN]/K1-NPN where [1-NPN] is the concentration of free 1-NPN, and K1-NPN the dissociation constant of the complex protein/1-NPN. All results of the binding experiments are reported in Figure 2 and in Supplementary Figures S1–S4, including those performed on a mutant (Lys37Leu), designed on the results obtained with the wild-type ApisOBP9. First, we measured the affinity of the protein to the fluorescent probe N-phenyl-1-naphthylamine (1-NPN), the most widely used with insect OBPs.
In the case of `CCCCCCCCCCCCCCO` [1-Tetradecanol], the Kd was 3410 nM.
Still for that read-out and setting: the value for `COc1cc(/C=C/C=O)ccc1O` [coniferyl aldehyde] was 7890 nM; that for `CCCC/C=C\CCCCCCCCCCCC=O` [(Z)-13-Octadecenal] was 2280 nM; that for `CCCCCCCCCCCCO` [1-Dodecanol] was 3790 nM.
In the case of `CCCC/C=C\CCCCCCCC=O` [(Z)-9-Tetradecenal], the Kd was 5310 nM.
`CCCC/C=C\CCCCCCOC(C)=O` [(Z)-7-Dodecenyl acetate]: the Kd is 1380 nM.
Still for that read-out and setting: then `CCCC/C=C\CCCCCCCCCC=O` [Z11-hexadecenal], with 1140 nM; and `CCCCCC/C=C\CCCCCCCC=O` [Z9-hexadecenal], with 1440 nM; and `CCCCCCCCCC(=O)O` [Decanoic acid], with 14500 nM.
The same measure, in the same setting: then `CCCCCCCCCCCCCCCCO` [1-hexadecanol], with 1900 nM.
As to `CC1=C(C=O)C(C)(C)CC=C1` [safranal], the Kd was 11400 nM.
Same read-out and setting: the value for `CCCC/C=C\CCCCCCCCCCO` [Z11-1-hexadecenol] was 1370 nM.
